From publication PMC2361176, “Inhibitory effects of retinoic acid metabolism blocking agents (RAMBAs) on the growth of human prostate cancer cells and LNCaP prostate tumour xenografts in SCID mice” (British Journal of Cancer, 2006)

How the values were obtained:
LNCaP cells [1] = assay: TUNEL assay of apoptosis in LNCaP cells; type: cell-based, human; settings: 1 or 5 μM, 6 days
Description: A total of 4000 LNCaP cells were plated on each well of an eight-well Lab-Tek II® chamber slide (Nalge Nunc International, Naperville, IL, USA). The LNCaP cells were then treated with either 1 or 5 μM of ATRA or RAMBA for 6 days. Cells were then fixed in 4% paraformaldehyde solution in dH2O. The cells were then processed and stained with FITC (fluorescein isothiocyanate) according to kit instructions (In situ cell death detection kit, AP, Roche Diagnostics Corp., Indianapolis, IN, USA). The FITC-stained cells are then mounted with VectorShield® mounting medium for fluorescence with DAPI (4′,6-diamidine-2′-phenylindole dihydrochloride) nuclear stain (Vector Laboratories, Inc., Burlingame, CA, USA) and covered with ApopTag® plastic coverslips (Intergen Company, Purchase, NY, USA). The slides were then examined under fluorescence microscopy (Eclipse E400, Nikon, Inc., Melville, NY, USA) and counted using SPOT Advance® 3.5 software (Diagnostic Instruments, Inc., Sterling Heights, MI, USA).

Bcl-2 = assay: Western-blot analysis of Bcl-2 in LNCaP cells; type: cell-based, human; settings: data not shown
Description: The Western-blot protocol described for cytokeratins 8/18 was followed with some exceptions. Cell lysates (50 μg) were separated on a 15% SDS–PAGE gel. All washing was performed using TBS containing 1% Tween 20 (TBS-T). Blocking was performed using 5% milk in TBS-T. Incubations were performed using rabbit monoclonal IgG antibody to Bad and Bcl-2 (1 : 1000), as well as horseradish peroxidase-linked anti-rabbit IgG antibodies (1 : 2000) (Cell Signaling Technology, Beverly, MA, USA).

LNCaP cells [2] = assay: Cell-cycle analysis (propidium iodide, FACScan); type: cell-based, human; settings: 1 μM, 6 days
Description: LNCaP cells were treated with 1 or 5 μM of ATRA or each of the RAMBAs for 6 days. The cells were trypsinised and washed twice in PBS (Life Technologies, Grand Island, NY, USA). The cells were fixed by adding 70% ethanol and stored at −20°C until staining. The cells were washed twice in PBS. A volume of 1 ml of a propidium iodide (PI) solution (50 μg ml^−1 in PBS) and 500 μl of an RNase stock solution (100 μg ml^−1) were added to the cells and incubated for 1 h in the dark. Approximately 10^4 stained cells were then analysed by flow cytometry (Becton Dickenson FACScan, Franklin Lakes, NJ, USA). The percentages of cells in G0/G1, S, and G2/M phases of the cell cycle as well as percentage of apoptotic cells (sub G0/G1) were determined using MODFIT LT software (Verity Software House, San Jose, CA, USA). The percentages of cells in G0/G1, S, and G2/M phases of the cell cycle were obtained from diploid cells in the sample and the percentage of apoptotic cells (sub G0/G1) was obtained from total cells minus the debris.

[3] = test system: human breast T47D cancer cells; parameters: method as in Van Heusden et al, 2002; settings: 1 μM, ref Van Heusden et al, 2002; cited from earlier work

CC1=C(/C=C/C(C)=C/C=C/C(C)=C/C(=O)Nc2ccc(O)cc2)C(C)(C)CCC1 [Compound 4-HPR, reference compound]
induction of apoptosis (TUNEL) (LNCaP cells [1]): concentration-dependent induction of apoptosis | expression of Bcl-2 (Bcl-2): did not effect | Sub-G1 (%) (LNCaP cells [2]; apoptotic cells, control 9.02): 7.52% | G2/M (%) (LNCaP cells [2]; control 2.20): 12.03% | S (%) (LNCaP cells [2]; control 15.01): 9.18% | G0/G1 (%) (LNCaP cells [2]; control 82.78): 79.53%

C[C@@H]([C@H](c1ccc(Nc2nc3ccccc3s2)cc1)n1ccnc1)N(C)C [Compound R116010]
enhancement of the antiproliferative activity of ATRA [3]: threefold
